Molecular target: T1, bovine liver catalase (BLC) (Bos taurus, UniProt P00432)
T1 sequence (P00432 2-527): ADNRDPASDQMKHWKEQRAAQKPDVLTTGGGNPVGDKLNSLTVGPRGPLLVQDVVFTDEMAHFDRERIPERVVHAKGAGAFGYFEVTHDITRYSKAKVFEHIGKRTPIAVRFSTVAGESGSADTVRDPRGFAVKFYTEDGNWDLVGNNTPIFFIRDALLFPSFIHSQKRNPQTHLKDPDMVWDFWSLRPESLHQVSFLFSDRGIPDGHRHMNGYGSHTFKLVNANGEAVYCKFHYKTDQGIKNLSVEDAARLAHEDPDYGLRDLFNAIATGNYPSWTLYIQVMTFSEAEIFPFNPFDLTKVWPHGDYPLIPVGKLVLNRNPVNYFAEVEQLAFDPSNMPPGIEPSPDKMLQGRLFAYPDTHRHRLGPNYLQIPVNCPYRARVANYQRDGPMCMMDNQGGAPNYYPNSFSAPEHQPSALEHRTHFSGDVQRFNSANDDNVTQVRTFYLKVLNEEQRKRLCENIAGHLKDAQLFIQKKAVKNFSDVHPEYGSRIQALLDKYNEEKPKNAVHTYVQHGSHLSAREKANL
Assay: UV assay of H2O2 decomposition at […] nm with Lineweaver-Burk analysis
Type: biochemical

O=c1c(O)c(-c2ccc(O)c(O)c2)oc2cc(O)cc(O)c12 [QUE, 3,5,7,3ʹ,4ʹ-pentahydroxyflavone]
Ki: 46 µM

From article PMC5684506 (BioImpacts : BI, 2017)
